Assay results from patent publication EP1180991B1, “GAMBOGIC ACID DERIVATIVES AS ACTIVATORS OF CASPASES AND INDUCERS OF APOPTOSIS” (Cytovia, Inc., priority 1999, dated 2000).

How the values were obtained:
MRC-5 = assay: Inhibition of cell proliferation (GI50) and cell death (LC50), CellTiter 96 (Example 91); type: cell-based, human; settings: Homo sapiens, MRC5; MRC-5 non-transformed fibroblasts; 48 h; dose for 50% inhibition of cell proliferation; read-out: GI50
Method: (§1) T-47D, ZR-75-1, PC-3, human prostate cancer cell line DU-145, human non-small cell lung cancer cell line A-549, human small cell lung cancer cell line SHP-77, HL-60 and MRC-5 cells were grown and harvested as in Example 90. […] The samples were mixed by agitation and incubated at 37° C for 2-4 h in a 5% CO2-95% humidity incubator. […] This determines the possible background absorbance of the test compounds. No absorbance for gambogic acid or its analogs or derivatives was found at 490 nm. After the 2-4 h incubation, the samples were read for absorbance as above (ATest).
(§2) The samples were mixed by agitation and incubated at 37° C for 2-4 h in a 5% CO2-95% humidity incubator. Absorbance was read as above, (AT=0) defining absorbance for initial cell number used as baseline in GI50 determinations and (Amin) defining absorbance for media alone used as baseline in LC50 determinations.
(§3) GI50 (dose for50%inhibition of cell proliferation) 50 = 100 x [(ATest-AT = 0)/(Amax-AT = 0)] [formula] LC50 (dose for50%cell death) 50 = 100 x [(ATest-Amin)/(AT = 0-Amin)] [formula]

[1] = as above; type: cell-based, human; settings: human, mrc-5 cells; MRC-5 non-transformed fibroblasts; 48 h; dose for 50% cell death
Method: as §1, §2, §3

SMILES: CC(C)=CCC[C@]1(C)C=Cc2c(O)c3c(c(CC=C(C)C)c2O1)O[C@]12C(=C[C@@H]4C[C@H]1C(C)(C)O[C@@]2(C/C=C(/C)C(=O)O)C4=O)C3=O [Example 1, Gambogic Acid]
- GI50 (MRC-5): 400 nM
- CC50 at 48 h [1]: 500 nM
